Experimental data: article PMC11050443, “Discovery of Strong 3-Nitro-2-Phenyl-2H-Chromene Analogues as Antitrypanosomal Agents and Inhibitors of Trypanosoma cruzi Glucokinase” (International Journal of Molecular Sciences, 2024)
“And” between values parts separate entries of the source, which are not always exact repeats. Identical values can stand only once.

Experiments:
[1] = tested on: T. cruzi (Tulahuen strain) infective form co-cultured in NIH-3T3 fibroblasts; assay: In vitro T. cruzi biological assay (β-galactosidase/CPRG); format: cell-based, Trypanosoma cruzi; details: for IC50: Tulahuen strain infective form growth inhibition co-cultured in NIH-3T3 fibroblasts, 4 days, N = 3; for T. cruzi growth inhibition (in words): efficacy in IC50
Experimental: General methods for the preparation of in vitro cell cultures involving T. cruzi parasites and mammalian cells along with the exposure to inhibitors has previously been described by Andriani and colleagues. T. cruzi (Tulahuen strain) that expresses β-galactosidase was harvested by centrifugation at 2500 rpm for 7 min. Parasites were rinsed twice with DMEM lacking phenol red and supplemented with 2% fetal bovine serum (FBS) and 1% penicillin—streptomycin—L-glutamine (PSG); the final concentrations of the PSG components were 100 U/mL penicillin, 0.1 mg/mL streptomycin, and 0.292 mg/mL L-glutamine. It was necessary to exclude phenol red since it interferes with the absorbance reading at λ = 590 nm. The parasites were centrifuged again for 7 min at 2500 rpm and the 50 mL tubes were carefully removed from the centrifuge. The tubes were placed on a rack with an incubator so that the trypomastigotes would move out of the pellet in a timeframe of 3–5 h. During this period, 100 μL of NIH-3T3 cells (50,000 cells) were plated per well in a transparent, clear, flat-bottom, and sterile 96-well microplate. This plate was placed in an incubator for 3 h at 37 °C to allow the cells to attach. The 3-nitro-2-phenyl-2H-chromene compounds (inhibitors) that were prepared as 10.0 mM stock solutions in 100% DMSO were thawed from −80 °C to room temperature. The compound solutions were diluted to their desired working concentrations, which ranged from 0.0781–10.0 μM. This was accomplished by serial dilution using a 2-fold dilution. A total of 100 μL of parasites was added to each well, which contained 50,000 trypomastigotes, and were incubated for 4 days. Using a multichannel pipette, 50.0 μL of the substrate solution [500 μM CPRG in phosphate buffered saline supplemented with 0.5% detergent NP-40] was added to each well of the 96-well microplate. The plate was placed into an incubator for 4 h followed by measuring absorbance readings at λ = 590 nm using a Victor Nivo multimode microplate reader (PerkinElmer, Inc.; Shelton, CT, USA). All measurements were performed in triplicate; absorbance values were proportional to parasite cell viability. IC50 determinations for percent growth inhibition were processed using GraphPad Prism 10.0. Amphotericin B was used as a positive control, the final solution concentration of which was 4.0 μM (prepared as a 270 μM stock solution). Four control conditions were carried out, as follows: (a) NIH-3T3 cells and parasites, (b) NIH-3T3 cells without parasites, (c) NIH-3T3 cells, parasites, and 4.0 μM amphotericin B, and (d) the medium alone.

NIH-3T3 fibroblasts = assay: In vitro cytotoxicity assay of mammalian NIH-3T3 fibroblasts (Alamar blue); format: cell-based; details: NIH-3T3 fibroblast growth inhibition, host cell toxicity; 4 days; N = 3
Experimental: The in vitro cell culturing of mammalian NIH-3T3 fibroblasts following treatment with inhibitors to assess for cytotoxicity has previously been described. DMEM lacking phenol red and supplemented with 2% FBS and 1% PSG was warmed up. NIH-3T3 cells were trypsinized, as described in the cell culture protocol. When cells became detached, they were harvested in DMEM lacking phenol red and including 2% FBS and 1% PSG. The cells were centrifuged at 1000 rpm for 5 min, the medium was discarded, and the cells were resuspended in fresh DMEM lacking phenol red and including 2% FBS and 1% PSG. The cells were centrifuged at 1000 rpm for 5 min, resuspended in the medium, counted, and diluted to 500,000 cells/mL. Dilution was accomplished by transferring the stock number of cells into a sterile basin and 100 μL of cells was added to each well of a transparent, sterile, flat-bottom, 96-well microplate (50,000 cells/well) using a multichannel pipette. The plate was placed into the incubator for 3 h to allow cells to attach. The 3-nitro-2-phenyl-2H-chromene compounds were thawed from −80 °C to room temperature. The compounds were prepared as 10.0 mM stock solutions in 100% DMSO. A volume of 2.0 μL of a given compound plus a volume of 98.0 μL of fresh media were both added to a well in the first row of the 96-well microplate; this was performed for each compound to be tested. The solutions were mixed with a micropipette, followed by the transfer of 100 μL to the next row and repeated. The compound solutions ranged from 0.0139–30.3 μM and this was accomplished by serial dilution using a 3-fold dilution. After incubation for 4 days, 10.0 μL of Alamar blue was added to each well. Absorbance readings were measured using a Victor Nivo multimode microplate reader (PerkinElmer, Inc.; Shelton, CT, USA) at λ = 590 nm. All measurements were performed in triplicate and TC50 determinations for percent growth inhibition were carried out using GraphPad Prism 10.0. The final volume per well of cells and a given compound was 100 μL and this volume became 110 μL after the addition of Alamar blue. The detergent SDS was used as a positive control and its final solution concentration was 0.1%. Three controls were carried out, as follows: (a) NIH-3T3 cells alone, (b) perished NIH-3T3 cells (NIH-3T3 cells in the presence of 0.1% SDS), and (c) the medium alone.

TcGlcK = tested on: TcGlcK; set-up: method as in PMID 31133533; details: earlier HTS campaign of 13,040 compounds; cited from earlier work
[2] = Trypanosoma cruzi, TULAHUEN, NIH3T3, 96 h

Row | Structure (SMILES) | IC50 [1, 2] | IC50 [1] | NIH-3T3 TC50 (NIH-3T3 fibroblasts) | IC50 (TcGlcK) | T. cruzi growth inhibition (in words) [1]
1 | CCOc1ccc(C2Oc3ccc(Br)cc3C=C2[N+](=O)[O-])cc1OC (stereo not shown) [Compound 1, 6-Bromo-2-(4-ethoxy-3-methoxyphenyl)-3-nitro-2H -chromene] | < 2 µM | 1.49 ± 0.07 µM | 16.0 ± 1.84 µM | 6.1 µM | –
2 | CCOc1ccc(C2Oc3ccc(Br)cc3C=C2[N+](=O)[O-])cc1OCC (stereo not shown) [Compound 2, 6-Bromo-2-(3,4-diethoxyphenyl)-3-nitro-2H -chromene] | 1.44 ± 0.07 µM | – | – | – | –
3 | COc1ccc(C2Oc3c(cc(Br)cc3OC)C=C2[N+](=O)[O-])cc1OC (stereo not shown) [Compound 3, 6-Bromo-2-(3,4-dimethoxyphenyl)-8-methoxy-3-nitro-2H -chromene] | 0.96 ± 0.02 µM | – | 17.5 ± 1.90 µM | – | –
4 | COc1ccc(C2Oc3ccc(Br)cc3C=C2[N+](=O)[O-])cc1OC (stereo not shown) [Compound 4, 6-Bromo-2-(3,4-dimethoxyphenyl)-3-nitro-2H -chromene] | < 2 µM | 1.31 ± 0.15 µM | 16.4 ± 1.91 µM | – | –
5 | COc1ccc(C2Oc3c(Br)cc(Br)cc3C=C2[N+](=O)[O-])cc1OC (stereo not shown) [Compound 5, 6,8-Dibromo-2-(3,4-dimethoxyphenyl)-3-nitro-2H -chromene] | 0.64 ± 0.23 µM | – | – | – | –
6 | CCOc1ccc(C2Oc3c(Br)cc(Br)cc3C=C2[N+](=O)[O-])cc1OC (stereo not shown) [Compound 6, 6,8-Dibromo-2-(4-ethoxy-3-methoxyphenyl)-3-nitro-2H -chromene] | ≥ 2 µM | 2.56 ± 0.26 µM | 18.1 ± 0.24 µM | – | –
7 | O=[N+]([O-])C1=Cc2cc(Br)cc(Br)c2OC1c1c(Cl)cccc1Cl (stereo not shown) [Compound 7, 2-(2,6-Dichlorophenyl)-6,8-dibromo-3-nitro-2H -chromene] | 0.64 ± 0.02 µM | – | 11.9 ± 0.51 µM | – | nanomolar efficacy
8 | CCOc1ccc(C2Oc3c(cc(Br)cc3OC)C=C2[N+](=O)[O-])cc1OC (stereo not shown) [Compound 8, 6-Bromo-2-(4-ethoxy-3-methoxyphenyl)-8-methoxy-3-nitro-2H -chromene] | 1.85 ± 0.15 µM | – | – | – | –
9 | CCOc1ccc(C2Oc3c(Cl)cc(Cl)cc3C=C2[N+](=O)[O-])cc1OCC (stereo not shown) [Compound 9, 6,8-Dichloro-2-(3,4-diethoxyphenyl)-3-nitro-2H -chromene] | – | – | 17.5 ± 1.60 µM | 4.8 µM | –
10 | CCOc1ccc(C2Oc3ccccc3C=C2[N+](=O)[O-])cc1OCC (stereo not shown) [Compound 10, 2-(3,4-Diethoxyphenyl)-3-nitro-2H -chromene] | 2.56 ± 0.26 µM | – | 9.45 ± 2.20 µM | – | –
11 | O=[N+]([O-])C1=Cc2cc(Br)ccc2OC1c1ccccc1Cl (stereo not shown) [Compound 11, 6-Bromo-2-(2-chlorophenyl)-3-nitro-2H -chromene] | – | – | 4.12 µM and 4.12 ± 1.95 µM | – | nanomolar efficacy
12 | O=[N+]([O-])C1=Cc2ccccc2OC1c1c(Cl)cccc1Cl (stereo not shown) [Compound 13, 2-(2,6-Dichlorophenyl)-3-nitro-2H -chromene] | 3.08 ± 0.08 µM | – | – | – | –
